Laboratory results taken from patent US20090042901A1, “AGENT FOR PREVENTION/THERAPY OF DISEASE CAUSED BY KERATINOCYTE GROWTH” (KOWA CO., LTD., priority 2005, published 2009).
Like-named read-outs stand apart in the source and are kept apart here.

How the values were obtained:
[1] = test system: VCAM-1 expression; test: VCAM-1 expression inhibitory activity in TNFα-stimulated HUVEC; format: cell-based; details: Homo sapiens, TNFα 10 ng/mL, 4.5 hours, read-out: VCAM-1 expression inhibitory action IC50
Experimental: Human umbilical vein endothelial cells (HUVEC) (Sanko Junyaku Co., Ltd.) were suspended in EGM-2 medium (Sanko Junyaku Co., Ltd.) at a concentration of 5×10^4 cells/mL, and were inoculated on a 96-well plate (Corning Corp.) at a concentration of 1×10^4 cells/well. The cells were cultured at 37° C. in the presence of 5% CO2 for 4 days, then 100 μL of the medium was removed, and 25 μL each of the substance under test and TNFα (final concentration 10 ng/mL, PeproTech, Inc.) were added. After incubating the cells for 4.5 hours at 37° C., the medium was removed, and each well was washed once with 100 μL of Hank's Balanced Salt Solution containing 0.5% bovine serum albumin and 0.02% sodiumazide (HBSS/BSA). Subsequently, 30 μL of a blocking solution (1% whole goat serum (ICN Biomedicals, Inc.)/HBSS/BSA) was added, and the plate was left to stand for 30 minutes on the ice. After washing once with 100 μL of HBSS/BSA, 1 μg/mL of anti-human VCAM-1 antibody (Genzyme-Techne, Inc.) was added to each well in an amount of 30 μL, and the plate was incubated on the ice for 1 hour. After washing three times with HBSS/BSA (200 μL), peroxidase-labeled goat anti-mouse IgG antibody (Pierce Biotechnology, Inc.) diluted 2000-folds with HBSS/BSA was added in an amount of 30 μL/well, and was allowed to react for 1 hour. After washing 5 times with HBSS/BSA as described above, 100 μL/well of TMB substrate (Moss Inc.) was added, an enzymatic reaction was allowed to proceed for 15 to 30 minutes at 25° C., and then 1 mol/L sulfuric acid was added in an amount of 25 μL/well to stop the reaction. The absorbance at 492 nm was measured using a reference wavelength of 620 nm and using a 96-well plate spectrophotometer, Multiscan MS-UV (Labsystems, Inc.). The inhibitory rate was determined by taking the absorbance for the case of TNFα stimulation without drug addition, as 100%. In addition, the measurement was performed three times for each group.

[2] = test system: TPA-stimulated SKH1-hrBR-Hairless mouse; test: Skin thickening in TPA-stimulated hairless mouse; format: in vivo; details: dorsal application of 50 μL after 10 nmol TPA, measured after 24 hours (FIG. 1)
Experimental: As an animal model for psoriasis, hairless mice stimulated with 12-O-tetradecanoylphorbol-13-acetate (hereinafter, referred to as TPA) were used (Sato, et al., Dermatology (1996) 192, 233-238). That is, on the dorsal side of a 7 to 8 weeks old female SKH1-hrBR-Hairless mouse (Charles River Laboratories Japan, Inc.), 10 nmol of TPA dissolved in acetone was applied, and then 50 μL of either the drug dissolved in acetone or Bonalfa (registered trademark) High (Teijin Pharma, Ltd.) was applied. After 24 hours, the thickness of the skin on the dorsal side was measured using a dial thickness gauge (Peacock G-1A, Ozaki MFG. Co., Ltd.), and the difference between the measured skin thickness and the skin thickness measured before TPA application was determined. The thickening of the skin thickness was suppressed by the application of the activated vitamin D3 preparation (Bonalfa (registered trademark) High). Also, the thickening of the skin thickness was suppressed by the application of the Compound 4.

[3] = test system: Normal human keratinocytes (newborn infant foreskin-derived epidermal keratinocyte); test: Growth of normal human keratinocytes (H3-thymidine uptake); format: cell-based; details: for IC50: Homo sapiens, Keratinocyte, H3-thymidine uptake, 22 h + 2 h culture, 0.01 to 10 μM, read-out: Human keratinocyte growth inhibition IC50
Experimental: Normal human keratinocytes (purchased from Kurabo Industries, Ltd.) were inoculated on a 48-well plate (Coster Corp.) at a concentration of 4×10^4 cells/well/500 μL, and were cultured overnight at 37° C. in the presence of 5% CO2. A compound of the present invention or activated vitamin D3 (Calcitriol; Wako Pure Chemical Industries, Ltd.) was added to a final concentration of 0.01 to 10 μM, and the cells were cultured for 22 hours. H^3-thymidine (Amersham plc.) was added, and the cells were incubated for another 2 hours. Subsequently, the cells were recovered after washing, and in a liquid scintillation counter (Packard Instrument Company, Inc.), the radioactivity taken up by the cells was measured. The results are presented as a ratio of the radioactivity taken up by the cells upon drug addition, with respect to the radioactivity of the case with no drug addition (Control), which was taken as 100%. The IC50 value, which is the concentration of the drug for inhibiting the uptake of radioactivity to 50% with respect to the control, was lower in the case of any of the Compounds 1 to 8 than in the case of Calcitriol.

IC50 [1]	SMILES	Thickening of the skin thickness [2]	IC50 ([3]; 24 h)	IC50 [3]	Efficacy relative to Calcitriol (keratinocyte growth inhibition IC50) ([3]; compared with Calcitriol)
20 nM	COc1ccc(N(Cc2ccnc(-c3cc(OC)c(OC)c(OC)c3)c2)C2CCN(Cc3ccnc(-c4cc(OC)c(OC)c(OC)c4)c3)CC2)cc1 [Compound 4]	suppressed	247 nM	247 nM	about 8 times
80 nM	COc1cc(-c2cc(CN3CCC(N(C)Cc4ccnc(-c5cc(OC)c(OC)c(OC)c5)c4)CC3)ccn2)cc(OC)c1OC [Compound 1]		66 nM		
	COc1cc(OC)cc(N(Cc2ccnc(-c3cc(OC)c(OC)c(OC)c3)c2)C2CCN(Cc3ccnc(-c4cc(OC)c(OC)c(OC)c4)c3)CC2)c1 [Compound 3]		49 nM		
5 nM	COc1cc(-c2cncc(CN(c3ccc(SC)cc3)C3CCN(Cc4ccnc(-c5cc(OC)c(OC)c(OC)c5)c4)CC3)c2)cc(OC)c1OC [Compound 2]		44 nM		
